Measurements: patent US12441695B2, “Substituted thiadiazinone dioxide and preparation method therefor, herbicidal composition, and application therefor” (Qingdao Kingagroot Chemical Compound Co., Ltd., priority 2019, dated 2025)

How the values were obtained:
[1] = system: monocotyledonous and dicotyledonous weeds; experiment: Experiment on weeding effect in post-emergence stage (weeds); assay type: in vivo; conditions: 600 g/ha active ingredient plus water 450 kg/ha, 3 weeks after application, fresh weight control rate; for Amaranthus retroflexus activity level (growth control rate): fomesafen-resistant Amaranthus retroflexus
Outline: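 Greenhouse pot-grown weeds and crops sprayed post-emergence 2–3 weeks after sowing with compound in acetone/Tween 80/water. Fresh-weight growth control scored after 3 weeks on a 0–5 scale (5: >85%, 0: <5%).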

[2] = system: major crops (wheat, corn, rice, soybean, cotton, oilseed rape, millet, sorghum); experiment: Experiment on weeding effect in post-emergence stage (crops); assay type: in vivo; conditions: 600 g/ha active ingredient plus water 450 kg/ha, 3 weeks after application; for corn plant damage level (growth control rate): crop corn; for rice plant damage level (growth control rate): crop rice; for soybean plant damage level (growth control rate): crop soybean
Outline: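 Weed and crop seeds were sown in soil-filled pots, covered with 0.5–2 cm soil and grown in a greenhouse. Plants were sprayed 2–3 weeks after sowing using a spray tower, with compound dissolved in acetone plus Tween 80 and diluted in water. Effect was expressed as fresh-weight growth control rate.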

Row | SMILES | Amaranthus retroflexus activity level (growth control rate) [1] | corn plant damage level (growth control rate) [2] | rice plant damage level (growth control rate) [2] | soybean plant damage level (growth control rate) [2] | Digitaria sanguinalis activity level (growth control rate) [1] | Setaria viridis activity level (growth control rate) [1] | Echinochloa crus-galli activity level (growth control rate) [1]
1 | CCCCC(=O)N1c2ccc(F)cc2C(=O)N(C(C)C)S1(=O)=O [Compound 181] | 5 (Level 5: growth control rate is above 85%) | 0 (Level 0: growth control rate is less than 5%) | 0 (Level 0: growth control rate is less than 5%) | 0 (Level 0: growth control rate is less than 5%) |  |  | 
2 | CC(C)N1C(=O)c2cc(F)ccc2N(C(=O)C(C)(C)C)S1(=O)=O [Compound 182] | 3 (Level 3: growth control rate is greater than or equal to 40% and less than 60%) | 0 (Level 0: growth control rate is less than 5%) | 0 (Level 0: growth control rate is less than 5%) | 0 (Level 0: growth control rate is less than 5%) |  |  | 
3 | C=CC(=O)N1c2ccc(F)cc2C(=O)N(C(C)C)S1(=O)=O [Compound 183] | 3 (Level 3: growth control rate is greater than or equal to 40% and less than 60%) | 0 (Level 0: growth control rate is less than 5%) | 0 (Level 0: growth control rate is less than 5%) | 0 (Level 0: growth control rate is less than 5%) |  |  | 
4 | CC(C)N1C(=O)c2cc(F)ccc2N(C(=O)C2CC2)S1(=O)=O [Compound 184] | 5 (Level 5: growth control rate is above 85%) | 1 (Level 1: growth control rate is greater than or equal to 500 and less than 200%) |  |  | 3 (Level 3: growth control rate is greater than or equal to 40% and less than 60%) | 3 (Level 3: growth control rate is greater than or equal to 40% and less than 60%) | 
5 | COCC(=O)N1c2ccc(F)cc2C(=O)N(C(C)C)S1(=O)=O [Compound 185] | 3 (Level 3: growth control rate is greater than or equal to 40% and less than 60%) | 0 (Level 0: growth control rate is less than 5%) | 0 (Level 0: growth control rate is less than 5%) | 0 (Level 0: growth control rate is less than 5%) |  |  | 
6 | CCCOC(=O)N1c2ccc(F)cc2C(=O)N(C(C)C)S1(=O)=O [Compound 186] | 4 (Level 4: growth control rate is greater than or equal to 60% and less than 85%) | 0 (Level 0: growth control rate is less than 5%) | 0 (Level 0: growth control rate is less than 5%) | 0 (Level 0: growth control rate is less than 5%) |  |  | 
7 | CCCCCCCCSC(=O)N1c2ccc(F)cc2C(=O)N(C(C)C)S1(=O)=O [Compound 189] | 4 (Level 4: growth control rate is greater than or equal to 60% and less than 85%) | 0 (Level 0: growth control rate is less than 5%) | 0 (Level 0: growth control rate is less than 5%) | 0 (Level 0: growth control rate is less than 5%) |  |  | 
8 | CC(C)N1C(=O)c2cc(F)ccc2N(C(=O)N(C)C)S1(=O)=O [Compound 190] | 3 (Level 3: growth control rate is greater than or equal to 40% and less than 60%) | 0 (Level 0: growth control rate is less than 5%) | 0 (Level 0: growth control rate is less than 5%) | 0 (Level 0: growth control rate is less than 5%) |  |  | 
9 | CCS(=O)(=O)N1c2ccc(F)cc2C(=O)N(C(C)C)S1(=O)=O [Compound 195] | 3 (Level 3: growth control rate is greater than or equal to 40% and less than 60%) | 0 (Level 0: growth control rate is less than 5%) | 0 (Level 0: growth control rate is less than 5%) | 0 (Level 0: growth control rate is less than 5%) |  |  | 3 (Level 3: growth control rate is greater than or equal to 40% and less than 60%)
10 | CCCS(=O)(=O)N1c2ccc(F)cc2C(=O)N(C(C)C)S1(=O)=O [Compound 196] | 5 (Level 5: growth control rate is above 85%) | 0 (Level 0: growth control rate is less than 5%) |  | 0 (Level 0: growth control rate is less than 5%) | 3 (Level 3: growth control rate is greater than or equal to 40% and less than 60%) | 5 (Level 5: growth control rate is above 85%) | 5 (Level 5: growth control rate is above 85%)
11 | COc1ccc(CN2c3ccc(F)cc3C(=O)N(C(C)C)S2(=O)=O)cc1 [Compound 197] | 3 (Level 3: growth control rate is greater than or equal to 40% and less than 60%) | 0 (Level 0: growth control rate is less than 5%) | 0 (Level 0: growth control rate is less than 5%) | 0 (Level 0: growth control rate is less than 5%) |  |  | 
12 | CC(C)N1C(=O)c2cc(F)cc(Br)c2N(C(=O)C2CC2)S1(=O)=O [Compound 199] | 5 (Level 5: growth control rate is above 85%) | 0 (Level 0: growth control rate is less than 5%) | 1 (Level 1: growth control rate is greater than or equal to 500 and less than 200%) |  |  | 5 (Level 5: growth control rate is above 85%) | 
13 | COCN1c2c(F)cc(F)cc2C(=O)N(C(C)C)S1(=O)=O [Compound 213] | 3 (Level 3: growth control rate is greater than or equal to 40% and less than 60%) | 0 (Level 0: growth control rate is less than 5%) | 1 (Level 1: growth control rate is greater than or equal to 500 and less than 200%) | 0 (Level 0: growth control rate is less than 5%) |  |  | 
14 | CCC(=O)N1c2c(F)cc(F)cc2C(=O)N(C(C)C)S1(=O)=O [Compound 214] | 5 (Level 5: growth control rate is above 85%) | 0 (Level 0: growth control rate is less than 5%) |  |  | 5 (Level 5: growth control rate is above 85%) | 5 (Level 5: growth control rate is above 85%) | 4 (Level 4: growth control rate is greater than or equal to 60% and less than 85%)
15 | CC(C)C(=O)N1c2c(F)cc(F)cc2C(=O)N(C(C)C)S1(=O)=O [Compound 215] | 5 (Level 5: growth control rate is above 85%) | 1 (Level 1: growth control rate is greater than or equal to 500 and less than 200%) |  |  | 5 (Level 5: growth control rate is above 85%) | 5 (Level 5: growth control rate is above 85%) | 5 (Level 5: growth control rate is above 85%)
16 | C=CC(=O)N1c2c(F)cc(F)cc2C(=O)N(C(C)C)S1(=O)=O [Compound 216] | 4 (Level 4: growth control rate is greater than or equal to 60% and less than 85%) | 0 (Level 0: growth control rate is less than 5%) | 0 (Level 0: growth control rate is less than 5%) |  | 3 (Level 3: growth control rate is greater than or equal to 40% and less than 60%) | 4 (Level 4: growth control rate is greater than or equal to 60% and less than 85%) | 3 (Level 3: growth control rate is greater than or equal to 40% and less than 60%)
17 | CC(C)N1C(=O)c2cc(F)cc(F)c2N(C(=O)C2CC2)S1(=O)=O [Compound 217] | 5 (Level 5: growth control rate is above 85%) | 1 (Level 1: growth control rate is greater than or equal to 500 and less than 200%) |  |  | 5 (Level 5: growth control rate is above 85%) | 5 (Level 5: growth control rate is above 85%) | 5 (Level 5: growth control rate is above 85%)
